Measured values: ChEMBL document CHEMBL1201862, “PubChem BioAssay data set” (2004)
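Each compound was tested at five concentrations against cells in 96-well plates for 48 hours. GI50: concentration for 50% inhibition of growth.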 Calls of active or inactive are those of the source. No stated cut-off is given here; in the data, active = GI50 up to about 1.1 µM and inactive = higher.

How the values were obtained:
Experiment in all cases: DTP human tumour cell line panel, 48 h
[1] = system: SNB-19
[2] = system: Hs-578T
[3] = system: OVCAR-8
[4] = system: OVCAR-5
[5] = system: UACC-257
[6] = system: HT-29
[7] = system: DU-145
[8] = system: NCI-H226
[9] = system: MDA-MB-231
[10] = system: NCI-H23
[11] = system: NCI-H522
[12] = system: M14
[13] = system: SW-620
[14] = system: HL-60
[15] = system: UO-31
[16] = system: COLO 205
[17] = system: Malme-3M
[18] = system: SF-539
[19] = system: U-251

Row | SMILES | GI50 [1] | GI50 [2] | GI50 [3] | GI50 [4] | GI50 [5] | GI50 [6] | GI50 [7] | GI50 [8] | GI50 [9] | GI50 [10] | GI50 [11] | GI50 [12] | GI50 [13] | GI50 [14] | GI50 [15] | GI50 [16] | GI50 [17] | GI50 [18] | GI50 [19]
1 | CC(CCOc1c2ccoc2cc2oc(=O)ccc12)C1=CC(=O)C(C)(C)O1 (stereo not drawn) | > 100 µM (inactive) | > 100 µM (inactive) | > 100 µM (inactive) | > 100 µM (inactive) | > 100 µM (inactive) | > 100 µM (inactive) | > 100 µM (inactive) | > 100 µM (inactive) | > 100 µM (inactive) | > 100 µM (inactive) | 13.9 µM (inactive) | > 100 µM (inactive) | > 100 µM (inactive) | > 100 µM (inactive) | > 100 µM (inactive) | > 100 µM (inactive) | > 100 µM (inactive) | > 100 µM (inactive) | > 100 µM (inactive)
2 | O=C(Cn1c(-c2ccccc2)cc2ccccc21)N1CCOCC1 | 79.3 µM (inactive) | > 100 µM (inactive) | > 100 µM (inactive) | > 100 µM (inactive) | > 100 µM (inactive) | > 100 µM (inactive) | > 100 µM (inactive) | > 100 µM (inactive) | 34.2 µM (inactive) | > 100 µM (inactive) | > 100 µM (inactive) | > 100 µM (inactive) | > 100 µM (inactive) | > 100 µM (inactive) | > 100 µM (inactive) | > 100 µM (inactive) | > 100 µM (inactive) | 67.1 µM (inactive) | 45 µM (inactive)
3 | COc1cc(/C=N/c2ccc(Oc3ccc(Cl)cc3)c(Cl)c2)cc(OC)c1OC | 21.8 µM (inactive) | 15.8 µM (inactive) | 25.8 µM (inactive) | 34.7 µM (inactive) | 20.7 µM (inactive) | 22.2 µM (inactive) | 11.7 µM (inactive) | 26.6 µM (inactive) | 16.8 µM (inactive) | 20.2 µM (inactive) | 12.3 µM (inactive) | 23.3 µM (inactive) | 34.2 µM (inactive) | 15 µM (inactive) | 11 µM (inactive) | 17.2 µM (inactive) | 15.5 µM (inactive) | 16.4 µM (inactive) | 18.2 µM (inactive)
4 | Clc1ccc(Cl)c(SCCCN2CCNCC2)c1 | 16.9 µM (inactive) | 16.1 µM (inactive) | 20.3 µM (inactive) | 15.5 µM (inactive) | 11.7 µM (inactive) | 14.6 µM (inactive) | 15.8 µM (inactive) | 18.3 µM (inactive) | 15 µM (inactive) | 19.4 µM (inactive) | 16.3 µM (inactive) | 17.3 µM (inactive) | 22.3 µM (inactive) | 14.2 µM (inactive) | 14.4 µM (inactive) | 16.2 µM (inactive) | 15.8 µM (inactive) | 27.5 µM (inactive) | 16.4 µM (inactive)
5 | CC1(O)CC(=O)c2c(cc3ccc(-c4c5c(c(O)c6c(O)cccc46)C(=O)CC(C)(O)C5)c(O)c3c2O)C1 (stereo not drawn) | 0.18 µM (active) | 0.265 µM (active) | 0.332 µM (active) | 0.611 µM (active) | 0.324 µM (active) | 0.409 µM (active) | 0.33 µM (active) | 0.448 µM (active) | 0.311 µM (active) | 0.0574 µM (active) | 0.213 µM (active) | 0.406 µM (active) | 0.468 µM (active) | 0.16 µM (active) | 0.212 µM (active) | 0.0442 µM (active) | 0.248 µM (active) | 0.174 µM (active) | 0.06 µM (active)
6 | Cn1cnc([N+](=O)[O-])c1Sc1nc(N)nc2c1ncn2[C@H]1C[C@H](O)[C@@H](CO)O1 | 62.1 µM (inactive) | 10.3 µM (inactive) | 2.51 µM (inactive) | 3.08 µM (inactive) | 8.32 µM (inactive) | 3.54 µM (inactive) | 1.21 µM (inactive) | 7.82 µM (inactive) | 3.36 µM (inactive) | 3.91 µM (inactive) | 2.57 µM (inactive) | 1.16 µM (inactive) | 6.5 µM (inactive) | 4.86 µM (inactive) | 3.43 µM (inactive) | 4.63 µM (inactive) | 5.26 µM (inactive) | 10.2 µM (inactive) | 12 µM (inactive)
7 | NC1CC(=O)c2c(Cl)sc(Cl)c21 (stereo not drawn) | 13.2 µM (inactive) | 19.2 µM (inactive) | 5.46 µM (inactive) | 19.3 µM (inactive) | 3.16 µM (inactive) | 1.72 µM (inactive) | 5.55 µM (inactive) | 14.4 µM (inactive) | 2.19 µM (inactive) | 10.5 µM (inactive) | 1.48 µM (inactive) | 3.85 µM (inactive) | 1.68 µM (inactive) | 1.6 µM (inactive) | 9.86 µM (inactive) | 1.63 µM (inactive) | 2.22 µM (inactive) | 2.37 µM (inactive) | 3.77 µM (inactive)
